Data taken from ChEMBL document CHEMBL3886808, “Pyrrolidine derivatives and their use as complement pathway modulators” (2016).

Molecular target: Complement factor D (Homo sapiens, UniProt P00746)
Assay: In Vitro Assay: Recombinant human factor D (expressed in E. coli and purified using standard methods) at 10 nM concentration is incubated with test compound at various concentrations for 1 hour at room temperature in 0.1 M Hepes buffer, pH 7.5, containing 1 mM MgCl2, 1 M NaCl and 0.05% CHAPS. A synthetic substrate Z-Lys-thiobenzyl and 2,4-dinitrobenzenesulfonyl-fluoresceine are added to final concentrations of 200 μM and 25 μM, respectively. The increase in fluorescence is recorded at excitation of 485 nm and emission at 535 nm in a microplate spectrofluorimeter.

Chain of Complement factor D (P00746 whole entry): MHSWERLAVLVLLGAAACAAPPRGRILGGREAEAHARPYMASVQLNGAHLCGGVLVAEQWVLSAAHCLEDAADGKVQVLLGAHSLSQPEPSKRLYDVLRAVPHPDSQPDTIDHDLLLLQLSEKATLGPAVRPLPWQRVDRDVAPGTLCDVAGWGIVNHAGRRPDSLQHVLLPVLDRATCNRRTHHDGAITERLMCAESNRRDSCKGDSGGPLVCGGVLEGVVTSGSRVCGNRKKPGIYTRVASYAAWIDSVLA

| SMILES | IC50 [nM] |
| --- | --- |
| CC(=O)c1nn(CC(=O)N2[C@@H]3C[C@@H]3C[C@H]2C(=O)NCCCC(F)(F)F)c2ncccc12 | 1140 |
| CC(F)(F)CCNC(=O)[C@@H]1C[C@H]2C[C@H]2N1C(=O)Cn1nc(C(N)=O)c2ccccc21 | 1050 |
